We go through 44 compounds from patent US20260325540A1 (priority 2023, published 2026).

The IC50 is the concentration needed to halve the response being measured. Higher therefore signals a need for much substance.

The experiment addresses HCoV-229E 3CL protease (Human coronavirus 229E, UniProt P0C6U2). In words: FRET based protease assay, HCoV-229E 3CL. It counts as biochemical. As to conditions: 229E IC50, 6 nM H229E-CoV Chis-3CLpro, 6 μM peptide 1 substrate, 25° C., 1.5 hrs, pH 7.5.

HCoV-229E 3CL protease, sequence (P0C6U2 2966-3267): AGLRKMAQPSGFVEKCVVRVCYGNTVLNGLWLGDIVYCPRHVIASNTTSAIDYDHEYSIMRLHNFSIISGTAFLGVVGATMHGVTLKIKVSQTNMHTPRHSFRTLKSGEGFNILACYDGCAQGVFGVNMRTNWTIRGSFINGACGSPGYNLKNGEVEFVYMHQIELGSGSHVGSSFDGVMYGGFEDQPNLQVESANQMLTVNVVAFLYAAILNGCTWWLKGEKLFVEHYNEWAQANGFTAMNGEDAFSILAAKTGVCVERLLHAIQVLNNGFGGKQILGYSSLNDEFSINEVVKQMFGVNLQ

In turn, `CC(C)(C)OC(=O)N[C@H]1CCC[C@H]2CNC(=O)[C@H]2C[C@@H](C#N)NC(=O)[C@@H]2[C@@H]3[C@H](CN2C(=O)C1)C3(C)C` [Example 125] gave an IC50 of 100 to 1000 nM.
The same measure for `CC(C)(C)OC(=O)N[C@@]1(C)CCCCC[C@H]2CNC(=O)[C@H]2C[C@@H](C#N)NC(=O)[C@@H]2[C@@H]3[C@H](CN2C1=O)C3(C)C` [Example 126]: above 20000 nM; for `CC(C)(C)OC(=O)N[C@H]1CCCC[C@H]2CNC(=O)[C@H]2C[C@@H](C#N)NC(=O)[C@@H]2[C@H]3CC[C@H](C3)N2C1=O` [Example 127]: 1000 to 20000 nM.
The same measure for `CC(C)(C)OC(=O)N[C@@H]1CCCC[C@H]2CNC(=O)[C@H]2C[C@@H](C#N)NC(=O)[C@@H]2[C@@H]3[C@H](CN2C1=O)C3(C)C` [Example 128]: above 20000 nM; for `CC1(C)[C@@H]2[C@H]3C(=O)N[C@H](C#N)C[C@@H]4C(=O)NCC[C@@H]4CCCC[C@H](NC(=O)c4ccc(F)cc4F)C(=O)N3C[C@@H]21` [Example 129]: below 100 nM.
The same measure for `CC1(C)C[C@H]2C(=O)N[C@H](C#N)C[C@@H]3C(=O)NC[C@@H]3CCCC[C@H](NC(=O)OC(C)(C)C)C(=O)N2C1` [Example 130]: below 100 nM; for `CC(C)(C)OC(=O)N[C@H]1CCCC[C@H]2CNC(=O)[C@H]2C[C@@H](C#N)NC(=O)[C@@H]2CC(F)(F)CN2C1=O` [Example 131]: 1000 to 20000 nM; for `CC(C)(C)OC(=O)N[C@H]1CCCC[C@H]2CNC(=O)[C@H]2C[C@@H](C#N)NC(=O)[C@@H]2CC3(CCN2C1=O)CC3` [Example 132]: below 100 nM.
Compound `CC1(C)[C@@H]2[C@H]3C(=O)N[C@H](C#N)C[C@@H]4C(=O)NC[C@@H]4CCCC[C@H](NC(=O)c4cc(Cl)ccc4Cl)C(=O)N3C[C@@H]21` [Example 133] had a half-inhibitory concentration (IC50) below 100 nM.
The same measure for `CC1(C)[C@@H]2[C@H]3C(=O)N[C@H](C#N)C[C@@H]4C(=O)NC[C@@H]4CCCC[C@H](NC(=O)c4cccc(Cl)c4Cl)C(=O)N3C[C@@H]21` [Example 134]: below 100 nM.
The same measure for `CC1(C)[C@@H]2[C@H]3C(=O)N[C@H](C#N)C[C@@H]4C(=O)NCC[C@@H]4CCCC[C@H](NC(=O)C45CC(C(F)(F)F)(C4)C5)C(=O)N3C[C@@H]21` [Example 135]: 100 to 1000 nM; for `CC(C)(C)C[C@@H]1NC(=O)[C@@H](NC(=O)c2ccc(Cl)c(Cl)c2)CCCC[C@H]2CNC(=O)[C@H]2C[C@@H](C#N)NC1=O` [Example 136]: below 100 nM.
The same measure for `CC(C)(C)OC(=O)N[C@H]1CCCC[C@H]2CNC(=O)[C@H]2C[C@@H](C#N)NC(=O)[C@H](CC2CCCC2)NC1=O` [Example 137]: below 100 nM; for `CC(C)(F)C[C@@H]1NC(=O)[C@@H](NC(=O)OC(C)(C)C)CCCC[C@H]2CNC(=O)[C@H]2C[C@@H](C#N)NC1=O` [Example 138]: 100 to 1000 nM.
`CC1(C)[C@@H]2[C@H]3C(=O)N[C@H](C#N)C[C@@H]4C(=O)NC[C@@H]4CCCC[C@H](NC(=O)c4ccc(F)cc4C(F)(F)F)C(=O)N3C[C@@H]21` [Example 139] returned a concentration for half-maximal inhibition (IC50) below 100 nM.
The same measure for `CN1C[C@@H]2CCCC[C@H](NC(=O)OC(C)(C)C)C(=O)N3C[C@H]4[C@@H]([C@H]3C(=O)N[C@H](C#N)C[C@@H]2C1=O)C4(C)C` [Example 140]: 1000 to 20000 nM; for `CC1(C)[C@@H]2[C@H]3C(=O)N[C@H](C#N)C[C@@H]4C(=O)NC[C@@H]4CCCC[C@H](NC(=O)C(C)(C)C(F)(F)F)C(=O)N3C[C@@H]21` [Example 141]: below 100 nM.
The same measure for `CC(C)(C)C[C@@H]1NC(=O)[C@@H](NC(=O)c2ccc(F)c(C(F)(F)F)c2)CCCC[C@H]2CNC(=O)[C@H]2C[C@@H](C#N)NC1=O` [Example 142]: 100 to 1000 nM.
Turning to `CC(C)(C)OC(=O)N[C@H]1CCCC[C@H]2CNC(=O)[C@H]2C[C@@H](C#N)NC(=O)[C@@H]2CCCCCN2C1=O` [Example 143], the IC50 fell in the range of 100 to 1000 nM.
The same measure for `CCO[C@@H]1C[C@H]2C(=O)N[C@H](C#N)C[C@@H]3C(=O)NC[C@@H]3CCCC[C@H](NC(=O)OC(C)(C)C)C(=O)N2C1` [Example 144]: 100 to 1000 nM; for `CCC(C)(C)[C@@H]1NC(=O)[C@@H](NC(=O)OC(C)(C)C)CCCC[C@H]2CNC(=O)[C@H]2C[C@@H](C#N)NC1=O` [Example 145]: 1000 to 20000 nM.
`CC(C)(C)OC(=O)N[C@H]1CCCC[C@H]2CNC(=O)[C@H]2C[C@@H](C#N)NC(=O)[C@H]2N(CC(F)(F)C2(C)C)C1=O` [Example 146] returned an IC50 of 100 to 1000 nM.
The same measure for `CO[C@@H]1C[C@H]2C(=O)N[C@H](C#N)C[C@@H]3C(=O)NC[C@@H]3CCCC[C@H](NC(=O)OC(C)(C)C)C(=O)N2C1` [Example 147]: 100 to 1000 nM; for `CC1(C)[C@@H]2[C@H]3C(=O)N[C@H](C#N)C[C@@H]4C(=O)NC[C@@H]4CCCC[C@H](NC(=O)C45CCC(C4)C5)C(=O)N3C[C@@H]21` [Example 148]: below 100 nM.
In turn, `CC(C)(C)C[C@@H]1NC(=O)[C@@H](NC(=O)C2(C(F)(F)F)CC2)CCCC[C@H]2CNC(=O)[C@H]2C[C@@H](C#N)NC1=O` [Example 149] gave an IC50 below 100 nM.
The same measure for `N#C[C@@H]1C[C@@H]2C(=O)NC[C@@H]2CCCC[C@H](NC(=O)C2(C(F)(F)F)CC2)C(=O)N2C[C@@H]3CCC[C@@H]3[C@H]2C(=O)N1` [Example 150]: below 100 nM; for `N#C[C@@H]1C[C@@H]2C(=O)NC[C@@H]2CCCC[C@H](NC(=O)C2(C(F)(F)F)CC2)C(=O)N2CCC3(CC3)C[C@H]2C(=O)N1` [Example 151]: below 100 nM.
As for `CC1(C)[C@@H]2[C@H]3C(=O)N[C@H](C#N)C[C@@H]4C(=O)NC[C@@H]4CCCC[C@H](NC(=O)OC4(C(F)(F)F)CCC4)C(=O)N3C[C@@H]21` [Example 152], the IC50 was below 100 nM.
The same measure for `CC1(C)[C@@H]2[C@H]3C(=O)N[C@H](C#N)C[C@@H]4C(=O)NC[C@@H]4CCCC[C@H](NC(=O)c4cc(C(F)(F)F)on4)C(=O)N3C[C@@H]21` [Example 153]: below 100 nM; for `CC1(C)[C@@H]2[C@H]3C(=O)N[C@H](C#N)C[C@@H]4C(=O)NC[C@@H]4CCCC[C@H](NS(=O)(=O)c4ccccc4)C(=O)N3C[C@@H]21` [Example 154]: below 100 nM.
The same measure for `N#C[C@@H]1C[C@@H]2C(=O)NC[C@@H]2CCCC[C@H](NS(=O)(=O)c2ccc(F)cc2F)C(=O)N2C[C@@H]3CCC[C@@H]3[C@H]2C(=O)N1` [Example 155]: below 100 nM.
The same measure for `CC1(C)[C@@H]2[C@H]3C(=O)N[C@H](C#N)C[C@@H]4C(=O)NC[C@@H]4CCCC[C@H](NS(=O)(=O)C4CC4)C(=O)N3C[C@@H]21` [Example 156]: below 100 nM; for `CC1(C)[C@@H]2[C@H]3C(=O)N[C@H](C#N)C[C@@H]4C(=O)NC[C@@H]4CCCC[C@H](NS(=O)(=O)c4ccc(F)cc4F)C(=O)N3C[C@@H]21` [Example 157]: below 100 nM; for `CC1(C)[C@@H]2[C@H]3C(=O)N[C@H](C#N)C[C@@H]4C(=O)NC[C@@H]4CCCC[C@H](NS(=O)(=O)C(F)(F)F)C(=O)N3C[C@@H]21` [Example 158]: below 100 nM.
On to `CC1(C)[C@@H]2[C@H]3C(=O)N[C@H](C#N)C[C@@H]4C(=O)NC[C@@H]4CCCC[C@H](NS(=O)(=O)C4(C)CC4)C(=O)N3C[C@@H]21` [Example 159], for which the IC50 was below 100 nM.
The same measure for `CC1(C)[C@@H]2[C@H]3C(=O)N[C@H](C#N)C[C@@H]4C(=O)NC[C@@H]4CCCC[C@H](NS(=O)(=O)C4CCC4)C(=O)N3C[C@@H]21` [Example 160]: below 100 nM; for `CC1(C)[C@@H]2[C@H]3C(=O)N[C@H](C#N)C[C@@H]4C(=O)NC[C@@H]4CCCC[C@H](N)C(=O)N3C[C@@H]21` [Example 161]: below 100 nM.
The same measure for `CC1(C)[C@@H]2[C@H]3C(=O)N[C@H](C#N)C[C@@H]4C(=O)NC[C@@H]4CCCC[C@H](Nc4nccc(C(F)(F)F)n4)C(=O)N3C[C@@H]21` [Example 162]: below 100 nM.
`CC1(C)[C@@H]2[C@H]3C(=O)N[C@H](C#N)C[C@@H]4C(=O)NC[C@@H]4CCCC[C@H](Nc4cc(C(F)(F)F)ncn4)C(=O)N3C[C@@H]21` [Example 163] gave an IC50 below 100 nM.
The same measure for `CC1(C)[C@@H]2[C@H]3C(=O)N[C@H](C#N)C[C@@H]4C(=O)NC[C@@H]4CCCC[C@H](Nc4ccnc(C(F)(F)F)n4)C(=O)N3C[C@@H]21` [Example 164]: below 100 nM; for `N#C[C@@H]1C[C@@H]2C(=O)NC[C@@H]2CCCC[C@H](Nc2nccc(C(F)(F)F)n2)C(=O)N2C[C@@H]3CCC[C@@H]3[C@H]2C(=O)N1` [Example 165]: 100 to 1000 nM; for `CC(C)(C)NC(=O)[C@@H]1CCCC[C@H]2CNC(=O)[C@H]2C[C@@H](C#N)NC(=O)[C@@H]2[C@@H]3[C@H](CN2C1=O)C3(C)C` [Example 166]: 1000 to 20000 nM.
The same measure for `CC(C)(C)NC(=O)[C@H]1CCCC[C@H]2CNC(=O)[C@H]2C[C@@H](C#N)NC(=O)[C@@H]2[C@@H]3[C@H](CN2C1=O)C3(C)C` [Example 167]: 100 to 1000 nM; for `CC(C)(C)OC(=O)NN1CCCC[C@H]2CNC(=O)[C@H]2C[C@@H](C#N)NC(=O)[C@@H]2[C@@H]3[C@H](CN2C1=O)C3(C)C` [Example 168]: 1000 to 20000 nM.
